# Laboratory results published in patent publication US20200246364A1, “MEDICAL APPLICATION OF COMPOSITION OF FRUCTOSE-1,6-BISPHOSPHATE AND BLOOD CONCENTRATION STABILIZER THEREOF” (ZHEJIANG UNIVERSITY, priority 2017, published 2020).
# Experiments:
# [1] = system: mouse liver cancer cells H22; assay: Tumor growth of mouse liver cancer H22 model; type: in vivo, ICR mice; settings: FBP 500 mg/kg, i.g., 7 days; for Tumor weight: three times per day; for inhibition of tumor growth (inhibition ratio): H22, metformin 150 mg/kg, sitagliptin 20 mg/kg
# Experimental: The treatment was performed three times per day, in which metformin or sitagliptin was administrated 0.5 h before trisodium fructose-1,6-bisphosphate. This is repeated for 7 days, and situations of the animals during the experiments were observed. The animals were sacrificed 24 hours after the last treatment, the tumor masses were taken out and weighed, and the average tumor weight in each group of animals was used as an efficacy index.
# [2] = system: fructose-1,6-bisphosphatase 1; assay: Kidney protein level of fructose-1,6-bisphosphatase 1 after 14 days treatment (Western Blot); type: in vivo; settings: SD rats, 14 days i.g.; FBP 500 mg/kg, metformin 150 mg/kg, sitagliptin 20 mg/kg; vs control group
# Experimental: 180-200 g SD rats were divided into 4 groups: a saline control group, a trisodium fructose-1,6-bisphosphate hydrate group (500 mg/kg, i.g), a metformin group (150 mg/kg, i.g) or a sitagliptin group (20 mg/kg, i.g), and a trisodium fructose-1,6-bisphosphate and metformin or sitagliptin combination group, 5 rats in each group. All groups were intragastrically treated, metformin or sitagliptin was administrated 0.5 h before fructose-1,6-bisphosphate, and this was repeated in 14 consecutive days. At 3 hours after the last intragastric treatment with fructose-1,6-bisphosphate, rat blood was collected to detect the blood concentration of FBP, kidney tissue was taken and the protein level of fructose-1,6-bisphosphatase 1 was measured by Western Blot.
# [3] = system: Bel-7402; assay: cells; settings: Homo sapiens, Bel-7402, 72 h
# Experimental: (§1) Human liver cancer cell strains Bel-7402 and huh-7, which had been incubated for 24 hours, were respectively incubated in a medium containing 1.6 mM or 0.8 mM of trisodium fructose-1,6-bisphosphate, a medium containing 0.2 mM of metformin or 25 μM of sitagliptin, and a medium containing 0.8 mM of trisodium fructose-1,6-bisphosphate and 0.2 mM of metformin/25 μM of sitagliptin for 72 h. A control group (Con) was not treated with the agent. Cell viability was determined by Sulforhodamine B (SRB) staining analysis method.
# [4] = system: SW620; assay: cells; settings: Homo sapiens, SW-620, 72 h, read-out: cell viability (Con = 100)
# Experimental: (§2) Human intestinal cancer cell strains SW620 and HCT-8, which had been incubated for 24 hours, were respectively incubated in a medium containing 0.8 mM of trisodium fructose-1,6-bisphosphate, a medium containing 0.2 mM of metformin/100 μM of sitagliptin, and a medium containing 0.8 mM of trisodium fructose-1,6-bisphosphate and 0.2 mM of metformin/100 μM of sitagliptin for 72 h. A control group (Con) was not treated with the agent. Cell viability was determined by Sulforhodamine B (SRB) staining analysis method.
# [5] = system: melanoma B16 cell; assay: Cell viability, Sulforhodamine B (SRB) staining; settings: Mus musculus, B16, 72 h, read-out: cell viability inhibited
# Experimental: Mouse melanoma B16 cells, which had been incubated for 24 hours, were incubated in a medium containing 0.8 mM of trisodium fructose-1,6-bisphosphate, a medium containing 20 μM of sitagliptin, and a medium containing 0.8 mM of trisodium fructose-1,6-bisphosphate and 20 μM of sitagliptin for 72 h. A control group (Con) was not treated with the agent. Cell viability was determined by Sulforhodamine B (SRB) staining analysis method.
# [6] = system: HCT-8; assay: Cell viability, Sulforhodamine B (SRB) staining; type: cell-based, human; settings: HCT-8, 72 h, FBP 0.8 mM
# Experimental: as §2
# [7] = Weight gain and fat accumulation caused by high-fat diet; type: in vivo, ICR mice; settings: high-fat diet mice
# Experimental: 40 ICR male mice (17-19 g/per mouse) were divided into 2 groups. […] The animals of the normal group (Naive) were still fed with the basic feed, and the model animals were equally divided into 4 groups and were further fed with the high-fat diet. In addition, according to the amount of water the mice had consumed, a certain dose of the agent was dissolved in drinking water. The animals in the model group (Model) were fed with the purified water, the animals in the fructose-1,6-bisphosphate group were fed with water containing 0.18% of 8-molecule hydrate of sodium fructose-1,6-bisphosphate (equivalent to FBP 300 mg/kg), the animals in the sitagliptin group were fed with water containing 0.012% of sitagliptin phosphate salt (equivalent to STG 20 mg/kg), and the animals in the combination group were fed with water containing FBP 500 mg/kg+STG 20 mg/kg. The treatment lasted continuously for 6 weeks, the body weight, food intake and water intake were measured per week, the body weight and body length (CM) were measured on the last day of the last week, and a Lee's INDEX (Lee's INDEX=body weight (g)^(1/3) * 1000/body length (cm)) was calculated to evaluate the state of animal obesity. Then, the animals were sacrificed by cervical vertebra dislocation and the mice were dissected, the epididymal fat pad was taken and weighed, and a fat coefficient was calculated to further investigate the degree of obesity of the mice.
# [8] = system: Huh-7; assay: Cell viability, Sulforhodamine B (SRB) staining; type: cell-based, human; settings: Huh-7, 72 h, FBP 0.8 mM
# Experimental: as §1
# [9] = system: glioma cells KNS-89; assay: Lactic acid released by glioma cells (glycolysis); type: cell-based, human; settings: KNS-89, 1.6 mM
# Experimental: (§3) Human glioma cell strains (U87-MG, KNS-89, SHG-44) were respectively incubated in culture media containing 0.8 mM of trisodium fructose-1,6-bisphosphate salt, and 1.6 mM of trisodium fructose-1,6-bisphosphate salt, and 1.6 mM of 2-deoxyglucose, and the contents of lactic acid as the final glycolytic product released by the cells in the culture media were measured after 12 h, 24 h, 36 h, and 48 h. […] Human glioma cell strain (U87-MG) was incubated in the culture medium containing 0.8 mM of trisodium fructose-1,6-bisphosphate salt for 1 h, 3 h, 6 h, 12 h, 24 h, 36 h, and 48 h, and level changes of key metabolic enzymes in the glycolytic pathway of cells were measured by Western Blot at the respective time points.
# [10] = system: glioma cells SHG-44; assay: Lactic acid released by glioma cells (glycolysis); type: cell-based, human; settings: SHG-44, 1.6 mM
# Experimental: as §3
# [11] = system: glioma cells U87-MG; assay: Lactic acid released by glioma cells (glycolysis); type: cell-based, human; settings: 1.6 mM
# Experimental: as §3
smiles,measurement,setting,value
"CN(C)C(=N)N=C(N)N [Met, metformin]",Tumor weight,"[1]; H22, metformin experiment, Met 150 mg/kg, Con 1.66 ± 0.29",1.46 ± 0.23 g
same,inhibition of tumor growth (inhibition ratio),[1],no significant difference
same,"protein level of fructose-1,6-bisphosphatase 1 in kidney tissue (Western Blot)",[2],not significantly changed
same,viability at 200 µM,[3]; read-out: cell viability (Con = 100),91.7 ± 1.62%
same,cytotoxicity at 200 µM,[3]; read-out: cell viability inhibited,5%
same,viability at 200 µM,[4],95.9 ± 7.54%
"N[C@@H](CC(=O)N1CCn2c(nnc2C(F)(F)F)C1)Cc1cc(F)c(F)cc1F [STG, sitagliptin]",Tumor weight,"[1]; H22, sitagliptin experiment, STG 20 mg/kg, Con 1.48 ± 0.34",0.78 ± 0.31 g
same,inhibition of tumor growth (inhibition ratio),[1],46.12%
same,cytotoxicity at 20 µM,[5],16%
same,cell viability inhibited,[6]; sitagliptin 100 μM,did not affect
same,viability at 100 µM,"[6]; Homo sapiens, STG 100 μM, read-out: cell viability (Con = 100)",95.4 ± 3.79%
same,fat coefficient (epididymal fat pad),"[7]; 6 weeks, model group 3.96±0.83%, normal group 1.58±0.68%",3.28±1.14%
same,Lee's INDEX,"[7]; 6 weeks, model group 353.28±9.64, normal group 337.05±9.96",346.34±9.36
same,body weight after 6 weeks,"[7]; agents in drinking water, FBP 300 mg/kg, STG 20 mg/kg, combination FBP 500 mg/kg+STG 20 mg/kg, model group 47.89±3.34",46.78 ± 6.1 g
same,"protein level of fructose-1,6-bisphosphatase 1 in kidney tissue (Western Blot)",[2],not significantly changed
same,viability at 25 µM,"[8]; Homo sapiens, STG 25 μM, read-out: cell viability (Con = 100)",92.1 ± 1.35%
same,cell viability inhibited,[8]; sitagliptin 25 μM,no significant difference
"O=CC[C@@H](O)[C@H](O)[C@H](O)CO [2-DG, 2-deoxy-D-glucose]",Relative levels of lactic acid (compared with the control group),[9]; 12 h,0.31 ± 0.09
same,Relative levels of lactic acid (compared with the control group),[9]; 24 h,0.27 ± 0.13
same,Relative levels of lactic acid (compared with the control group),[9]; 36 h,0.31 ± 0.02
same,Relative levels of lactic acid (compared with the control group),[10]; 12 h,0.76 ± 0.15
same,Relative levels of lactic acid (compared with the control group),[10]; 24 h,0.62 ± 0.13
same,Relative levels of lactic acid (compared with the control group),[10]; 36 h,0.57 ± 0.04
same,Relative levels of lactic acid (compared with the control group),[11]; 12 h,0.48 ± 0.16
same,Relative levels of lactic acid (compared with the control group),[11]; 24 h,0.31 ± 0.07
same,Relative levels of lactic acid (compared with the control group),[11]; 36 h,0.65 ± 0.10
